{"source": "patent US10434167B2", "about": "(priority 2014, dated 2019)", "test_system": "Human red blood cells", "assay": "Hemolytic assay (hemolysis of red blood cells by QS-21/saponin with or without liposomes)", "type": "cell-based", "conditions": "22° C.", "text": "Hemolysis of red blood cells was used as a measure both of the relative amount of free QS-21, and of the toxicity of QS-21 under the indicated experimental conditions. Human red blood cells were purchased from the Research Blood Components LLC (Boston, Mass., USA) under a Walter Reed Army institute of Research protocol reviewed by the independent Institutional Review Board, Division of Human Subjects. Erythrocytes were washed with PBS and were quantified by a Beckman Coulter counter model ACT10 (Indianapolis Ind., USA). In each assay of this study, hemolytic activity of QS-21 incubated with or without liposomes was determined in 220 μl volume and each step of the assay was performed at room temperature (22° C.). One hundred microliters of QS-21 dilution was incubated with 100 μl of liposomes, or PBS only, on a Daigger Rocker (Vernon Hills, Ill., USA) for 15 minutes. After mixing the liposomes, 2×10^7 erythrocytes in 20 μl of PBS were added to the mixture and incubated on a Daigger Rocker for an additional 30 minutes. Plates were centrifuged at 800×g for 6 min. Supernatant was transferred to a polystyrene 96-well plate, and absorbance was read at 541 nm. Hemolysis by QS-21 binding to liposomal Chol was expressed as % of maximum hemolysis by free QS-21.\nThe hemolytic activities of liposome compositions with QS-21 were characterized first by varying QS-21 concentration. […] Red blood cells were added to the mixture of liposome-QS-21, and incubated for 30 minutes. Free QS-21 served as positive control. Cells were centrifuged and the optical density of supernatant was measured at 541 nm to reflect the levels of hemolysis.", "data": [{"substance": "QS-21", "values": [{"measurement": "amount of QS-21 causing maximum hemolysis", "setting": "QS-21 pre-incubated with DMPC/DMPG liposomes (5 μmol phospholipids) containing 33.7 mol % Chol", "value": "approximately 4 μg"}, {"measurement": "amount of QS-21 causing maximum hemolysis", "setting": "QS-21 pre-incubated with DMPC/DMPG liposomes (5 μmol phospholipids) containing 43 mol % Chol", "value": "approximately 4 μg"}, {"measurement": "amount of QS-21 up to which the hemolytic effect was completely blocked", "setting": "QS-21 pre-incubated with DMPC/DMPG liposomes (5 μmol phospholipids) having 55 mol % Chol", "value": "≥ 200", "unit": "µg"}, {"measurement": "amount of QS-21 causing maximum hemolysis", "setting": "free QS-21, no liposomes", "value": "approximately 2 μg"}]}]}
